Where no end group is shown, it is not given here.
Key:
[1] = Single-channel electrical recordings in planar lipid bilayers; format: biochemical; settings: Supplementary Table 1
Description: High-resolution electrical recordings for the single-channel characterization were conducted in planar lipid bilayers made up of 1,2-diphytanoyl-sn-glycero-3-phosphocholine (DPhPC, Avanti Polar Lipids)[23],[27],[51]. The lipid bilayer is formed across a polytetrafluoroethylene (Teflon) aperture of ~100 µm in diameter. Teflon is placed between the two sides of the Delrin bilayer chamber, partitioning it into cis and trans compartments (600 µL each). For constructing a solvent-free lipid bilayer, the aperture is made lipophilic by pre-painting both sides with hexadecane in n-pentane (1 μL, 5 mg mL^−1)[51]. After ~10 min, the chambers were filled with buffered electrolytes (1 M KCl, 10 mM HEPES, pH 7.4), and DPhPC in n-pentane (1 μL, 5 mg mL^−1) was added. After ~15 min incubation, the lipid bilayer is formed by raising and lowering the electrolyte solution, bringing the two lipid monolayers together at the aperture. The cis compartment was connected to the ground electrode, while the trans compartment was connected to the working live electrode. Subsequently, DpPorA or DpPorA DE peptides solubilized in 0.1% DDM (1 µL, 100 µg mL^−1) were consistently introduced into the cis compartment of the bilayer. The peptide pore insertion was facilitated by mixing the bilayer chamber and applying a high voltage of +200 mV. The single-channel electrical properties of the peptide pores and analyte-induced pore blockages were examined in 1 M KCl, 10 mM HEPES, pH 7.4. Ion selectivity was assessed under asymmetric salt conditions with a KCl concentration gradient across the planar lipid bilayer (0.15 M cis/1 M trans) (SI text)[27]. The ion current was acquired and amplified using an Axopatch 200B amplifier, digitized with Digidata 1550B digitizer, and recorded using the pClamp 11 acquisition software (Molecular Devices, CA). The current signals were filtered with a 2 kHz low-pass filter frequency and 10 kHz sampling frequency, or with 10 kHz low-pass filter frequency and 50 kHz sampling frequency, in line with the requirement.

[2] = test system: MDA-MB-231 cells; format: cell-based, human; settings: 10 µM and 20 µM, 24 h, MTT, n = 3
Description: The MDA-MB-231 cell line was obtained from ATCC (Kind gift from Dr. Annapoorni Rangarajan, Indian Institute of Science, Bengaluru, Karnataka, India) and tested negative for mycoplasma contamination. Cells were cultured in DMEM (Gibco, 11965-092) supplemented with 10% FBS (Thermo Fisher Scientific, 10270-106) and Penicillin (100 Units/mL) /Streptomycin (100 µg/mL) (Thermo Fisher Scientific, 15070-063). […] Cell proliferation was measured 24 h after the addition of Peptide/ DDM using MTT assay (3-(4,5-dimethylthiazol-2-yl)-2,5-diphenyltetrazolium bromide, M6494, Thermo Fischer Scientific). […] The purple-colored formazan crystals were dissolved by adding 100 µL DMSO (D5879, Sigma Aldrich), and the absorbance at 570 nm was measured using a plate reader (EMax plus microplate reader). […]
Immunofluorescence (IF) images were analyzed to assess the impact of different treatments on cell membrane integrity. […] We evaluated a t least 100 cells for each group - Control, DDM-treated cells and peptide-treated cells- with independent analysis done by a student blinded to the groups' identity . […]
indicating a loss of cell membrane integrity. This categorization provided a clear and systematic approach to quantify the effects of various treatments on cell membrane integrity. […]

| Sequence | experimental conductance Gexp [1] | change in cell viability [2] |
| --- | --- | --- |
| MIDQITEIFGQLGTFLGGFGNIFKGLKAVIATIVKWTAAK [LpPorA DE] | 3.8 ± 0.2 nS | – |
| MIDQITEIFGQLGTFLGGFGNIFKGLKDVIETIVKWTAAK [LpPorA] | 3.0 ± 0.2 nS | no significant change in viability |

From paper PMC12491518, “Fabrication of cytotoxic mirror image nanopores” (Nature Communications, 2025)
